From patent US20180200331A1, “BST-2 AS A THERAPEUTIC TARGET AND DIAGNOSTIC MARKER FOR BREAST CANCER GROWTH AND METASTASIS” (University of Iowa Research Foundation, priority 2015, published 2018)

Tested on: 4T1 cells
Assay: Tail vein injection of 4T1 cells, lung metastasis
Format: in vivo, BALB/c mice
Protocol: Metastatic tumors were generated by implanting 300,000 4T1 shControl, sh413 or sh413 WT cells in 100 μl of PBS via tail vein in five-week-old female mice. Prior to imaging, mice were anesthetized, weighed and injected intraperitoneally with D-luciferin. Mice were imaged using the Xenogen IVIS three-dimensional optical imaging system (Caliper Life Sciences). Moreover, lung metastatic tumors were imaged post-mortem and counted grossly. Moreover, spleens from shControl, sh413, or sh413 WT injected mice were isolated and weighted. Average splenic weight was calculated from 3 different mice and plotted in a bar graph. Finally, Kaplan-Meier survival plots were generated and analyzed using the Gehan-Breslow-Wilcoxon test (GraphPrism) (FIG. 44).
Protein from lungs of mice injected with 4T1 shControl, sh413, or sh413 WT cells via tail vein was isolated to perform western blots blotting for total levels of BIM, levels of activated Caspase-3 (Cleaved Caspase-3) and GAPDH. Bands from 3 different western blots were normalized to GAPDH, quantified, averaged and depicted as bar graphs (FIG. 45).

For “sh413: BST-2-targeting shRNA (SEQ ID NO:4), delivered by lentiviral particles (CCGGGCTTGAGAATGAAGTCACGAACTCGAGTTCGTGACTTCATTCTCAAGCTTTTTG)”, the “levels of pro-apoptotic factors (BIM, Caspase-3) in the lungs” value (tail vein injected mice) was “elevates levels of pro-apoptotic factors” and the lung metastasis (tail vein, 42 days) was “decreases lung metastasis in vivo”.
